Experimental data: patent publication US12439925B2, “Anti-pathogenic activity of a bifunctional peptidoglycan/chitin hydrolase” (Universiteit Antwerpen, priority 2018, dated 2025)
“Also recorded” adds a separate entry of the source. Like-named read-outs stand apart in the source and are kept apart here.

Legend:
C. albicans = assay type: cell-based, Candida albicans; details: for effect of acids on hyphal formation in C. albicans: compared with lactic acid
Experimental: (§1) Candida (albicans, dubliensis, and tropicalis) hyphae were induced by incubating 10^6 CFU/ml cells with 10% FCS, for 3 h at 37° C. in the wells of a 24-well plate, in a total volume of 500 μl per repetition and 4 biological repetitions per condition. To investigate the effect of lactobacilli 10^8 CFU/ml L. rhamnosus strains were added to the wells and co-incubated. To investigate the effect of Msp1, 5 μg/ml or 10 μg/ml of purified Msp1 from L. rhamnosus GG or L. rhamnosus GR-1 was added to the wells and co-incubated. To investigate the effect of acids, 100 μl of a 1% lactic acid or 1% butyric acid was added to the wells and co-incubated. After (co-) incubation for 3 h, at least 100 yeast cells and/or hyphae were counted in each well (4 per condition) and the ratio of hyphae to yeast cells was calculated.

C. albicans biofilms = assay: Inhibition of C. albicans biofilm formation (XTT, absorbance 492 nm); assay type: cell-based, Candida albicans; details: 24 h
Experimental: The inhibiting effects on C. albicans biofilms were assessed. Briefly, C. albicans was grown overnight in YPD medium and suspended to 10^6 CFU/ml and added to the wells of a 96 well plate (80 μl/well), together with the samples (supernatant, lactic acid, Msp1) or controls (MRS or H20). After incubation for 24 h at 37° C., the biofilms were washed twice and then 2,3-bis (2-methoxy-4- nitro-5-sulfophenyl)-2H-tetrazolium-5-carboxanilide (90 μl, 1 mg/ml) (Sigma Aldrich) and phenazine methosulphate (10 μl, 0.2 mg/ml) (Sigma Aldrich) were added to the wells. After a second incubation (37° C., 30 minutes, in the dark), the absorbance at 492 nm was measured using a Synergy™ HTX multi-mode reader (Biotek, Drogenbos, Belgium).

C. tropicalis = assay: Inhibition of FCS-induced hyphal formation in C. tropicalis; assay type: cell-based, Candida tropicalis; details: different concentrations of Msp1
Experimental: as §1

C. dubliensis = assay: Inhibition of FCS-induced hyphal formation in C. dubliensis; assay type: cell-based, Candida dubliensis; details: different concentrations of Msp1
Experimental: as §1

[1] = Chitinase activity based on breakdown of chitin-azure; assay type: biochemical; details: compared with commercial chitinase from Streptomyces griseus; sodium acetate buffer control
Experimental: First, the chitinase activity of Msp1 was investigated based on breakdown of chitin-azure (Sigma), as described previously. Further confirmation was based on inhibition of chitinase activity by 2.5 mM Bisdionine C (Sigma), as described previously.

CCCC(=O)O [Butyric acid, butyric acid]
effect of acids on hyphal formation in C. albicans (C. albicans): comparable effects

CC(O)C(=O)O (centres unmarked) [Lactic acid, lactic acid]
reduction of hyphal morphogenesis (C. albicans; 0.5-2% lactic acid, D- and L-lactic acid 1:1): reduced hyphal morphogenesis
reduction of hyphal morphogenesis (C. albicans; 1% lactic acid (D- and L-lactic acid 1:1)): approximately 50%
anti-biofilm activity on C. albicans (C. albicans biofilms; lactic acid 0.4%): showed anti-biofilm activity

Cl [hydrochloric acid]
effect of acids on hyphal formation in C. albicans (C. albicans): inhibited hyphae formation significantly

Cn1cnc2c1c(=O)n(CCCn1c(=O)c3c(ncn3C)n(C)c1=O)c(=O)n2C [Bisdionine C]
rescue of C. albicans hyphal morphogenesis from Msp1 inhibition (C. albicans; 2.5 mM Bisdionine C in the presence of Msp1): partially reversed; also recorded: can prevent hyphal inhibition partially

B1: Msp1: bifunctional peptidoglycan/chitin hydrolase, major secreted protein 1, purified from L. rhamnosus GG supernatant (protein)
chain: MVDSKKVLSVTAGFVGAAGLAALATGANTVSASTGTVSYKSGATTVWNSPSWHQVKRYVTFGDTVQLLGKTVDQNGATWYKVGDNQWIPELYLNVAGKTATVETPSSAASQTAVSQAPASQAPTSQAPATQTPAAPQTDTQTANTQLYVKNIGSAVTVWTTPAYTHATGQYLEGSQTLTAVAQQQANGETWYRLANGGYVPARFVSTTPVAVTPQPAAPQSNEASVASTNTNAANDSAAASSAAASQAAASSAAASTAAANAAVASANATASQAAASEAAASQAAASQAAASQAAASQAAASQAAASQAAASQAAASQAAASQAAASQAAANAAQQAPANQANVTTTQVNANQAQQQTATATPAVNTSNQTAAVSASRQAKIQAVIAIAEQQVGKPYVWGGKGPNSFDCSGLMYYAFLNGAGVNIGGWTVPQESSGTQVSLSALQPGDLLFWGSHGSTYHVALYIGGGTMIQAPQPGENVKYTALAYFMPDFAVRPSL
modifications: Msp1 protein
notes: bifunctional peptidoglycan/chitin hydrolase, major secreted protein 1, purified from L. rhamnosus GG supernatant
effect on FCS-induced hyphal formation in C. tropicalis (C. tropicalis): concentration-dependent effect
reduction of hyphal morphogenesis (C. albicans; concentrations as low as 5 μg/mL): more than 50%
effect on FCS-induced hyphal formation in C. dubliensis (C. dubliensis): concentration-dependent effect
anti-biofilm activity on C. albicans (C. albicans biofilms; Msp1 10 μg/mL): showed anti-biofilm activity
breakdown of chitin (chitin-azure) [1]: able to break down chitin, to the same extent as a commercially available chitinase; also recorded: can break down chitin derivative, chitin-azure
